# Reference: US12077503B2, “Substituted cyclic amides and their use as herbicides” (FMC CORPORATION, priority 2015, dated 2024)
# Experiments:
# Experiment in all cases: Test D preemergence
# Format in all cases: in vivo
# Conditions in all cases: scale 0 to 100
# [1] = test system: windgrass (Apera spica-venti)
# Description: (§1) Seeds of plant species selected from bluegrass (annual bluegrass, Poa annua), blackgrass (Alopecurus myosuroides), canarygrass (littleseed canarygrass, Phalaris minor), chickweed (common chickweed, Stellaria media), Galium (catchweed bedstraw, Galium aparine), bromegrass, downy (downy bromegrass, Bromus tectorum), field poppy (Papaver rhoeas), field violet (Viola arvensis), foxtail, green (green foxtail, Setaria viridis), deadnettle (henbit deadnettle, Lamium amplexicaule), ryegrass, Italian (Italian ryegrass, Lolium multiflorum), Kochia (Kochia scoparia), lambsquarters (Chenopodium album), oilseed rape (Brassica napus), pigweed (Amaranthus retroflexus), chamomile (scentless chamomile, Matricaria inodora), Russian thistle (Salsola kali), speedwell (bird's-eye speedwell, Veronica persica), barley, spring (spring barley, Hordeum vulgare), wheat, spring (spring wheat, Triticum aestivum), buckwheat, wild (wild buckwheat, Polygonum convolvulus), mustard, wild (wild mustard, Sinapis arvensis), oat, wild (wild oat, Avena fatua), radish, wild (wild radish, Raphanus raphanistrum), windgrass (Apera spica-venti), barley, winter (winter barley Hordeum vulgare), and wheat, winter (winter wheat, Triticum aestivum) were planted into a silt loam soil and treated preemergence with test chemicals formulated in a non-phytotoxic solvent mixture which included a surfactant.
# (§2) Treated plants and controls were maintained in a controlled growth environment approximately 21 d after which time all species were compared to controls and visually evaluated. Plant response ratings, summarized in Table D, are based on a scale of 0 to 100 where 0 is no effect and 100 is complete control. A dash (-) response means no test result.
# [2] = test system: radish, wild (wild radish, Raphanus raphanistrum)
# Description: as §1, §2
# [3] = test system: ryegrass, Italian (Italian ryegrass, Lolium multiflorum)
# Description: as §1, §2
# [4] = test system: speedwell (bird's-eye speedwell, Veronica persica)
# Description: as §1, §2
# [5] = test system: lambsquarters (Chenopodium album)
# Description: as §1, §2
# [6] = test system: wheat, spring (spring wheat, Triticum aestivum)
# Description: as §1, §2
# [7] = test system: foxtail, green (green foxtail, Setaria viridis)
# Description: as §1, §2
# [8] = test system: mustard, wild (wild mustard, Sinapis arvensis)
# Description: as §1, §2
# [9] = test system: Kochia (Kochia scoparia)
# Description: as §1, §2
# [10] = test system: deadnettle (henbit deadnettle, Lamium amplexicaule)
# Description: as §1, §2
# [11] = test system: Galium (catchweed bedstraw, Galium aparine)
# Description: as §1, §2
# [12] = test system: bluegrass (annual bluegrass, Poa annua)
# Description: as §1, §2
# [13] = test system: field violet (Viola arvensis)
# Description: as §1, §2
# [14] = test system: chamomile (scentless chamomile, Matricaria inodora)
# Description: as §1, §2
# [15] = test system: Russian thistle (Salsola kali)
# Description: as §1, §2
# [16] = test system: barley, winter (winter barley Hordeum vulgare)
# Description: as §1, §2
# [17] = test system: chickweed (common chickweed, Stellaria media)
# Description: as §1, §2
# [18] = test system: canarygrass (littleseed canarygrass, Phalaris minor)
# Description: as §1, §2
# [19] = test system: buckwheat, wild (wild buckwheat, Polygonum convolvulus)
# Description: as §1, §2
# [20] = test system: oat, wild (wild oat, Avena fatua)
# Description: as §1, §2
# [21] = test system: bromegrass, downy (downy bromegrass, Bromus tectorum)
# Description: as §1, §2
# [22] = test system: blackgrass (Alopecurus myosuroides)
# Description: as §1, §2
compound,measurement,setting,value
"CN1C[C@H](c2ccc(C(F)(F)F)cc2)[C@@H](C(=O)Nc2cccc(F)c2F)C1=O [Compound 623, (3S,4S)—N-(2,3-difluorophenyl)-1-methyl-2-oxo-4-[4-(trifluoromethyl)phenyl]-3-pyrrolidinecarboxamide]",Plant response rating: Windgrass,[1]; 31 g ai/ha,85
same,Plant response rating: Windgrass,[1]; 62 g ai/ha,90
same,Plant response rating: Windgrass,[1]; 125 g ai/ha,95
same,Plant response rating: Windgrass,[1]; 250 g ai/ha,95
same,"Plant response rating: Radish, Wild",[2]; 31 g ai/ha,0
same,"Plant response rating: Radish, Wild",[2]; 62 g ai/ha,15
same,"Plant response rating: Radish, Wild",[2]; 125 g ai/ha,50
same,"Plant response rating: Radish, Wild",[2]; 250 g ai/ha,85
same,"Plant response rating: Ryegrass, Italian",[3]; 31 g ai/ha,0
same,"Plant response rating: Ryegrass, Italian",[3]; 62 g ai/ha,15
same,"Plant response rating: Ryegrass, Italian",[3]; 125 g ai/ha,40
same,"Plant response rating: Ryegrass, Italian",[3]; 250 g ai/ha,65
same,Plant response rating: Speedwell,[4]; 31 g ai/ha,95
same,Plant response rating: Speedwell,[4]; 62 g ai/ha,100
same,Plant response rating: Speedwell,[4]; 125 g ai/ha,100
same,Plant response rating: Speedwell,[4]; 250 g ai/ha,90
same,Plant response rating: Lambsquarters,[5]; 31 g ai/ha,55
same,Plant response rating: Lambsquarters,[5]; 62 g ai/ha,60
same,Plant response rating: Lambsquarters,[5]; 125 g ai/ha,80
same,Plant response rating: Lambsquarters,[5]; 250 g ai/ha,95
same,"Plant response rating: Wheat, Spring",[6]; 31 g ai/ha,5
same,"Plant response rating: Wheat, Spring",[6]; 62 g ai/ha,10
same,"Plant response rating: Wheat, Spring",[6]; 125 g ai/ha,20
same,"Plant response rating: Wheat, Spring",[6]; 250 g ai/ha,45
same,"Plant response rating: Foxtail, Green",[7]; 31 g ai/ha,95
same,"Plant response rating: Foxtail, Green",[7]; 62 g ai/ha,98
same,"Plant response rating: Foxtail, Green",[7]; 125 g ai/ha,98
same,"Plant response rating: Foxtail, Green",[7]; 250 g ai/ha,98
same,"Plant response rating: Mustard, Wild",[8]; 31 g ai/ha,10
same,"Plant response rating: Mustard, Wild",[8]; 62 g ai/ha,15
same,"Plant response rating: Mustard, Wild",[8]; 125 g ai/ha,85
same,"Plant response rating: Mustard, Wild",[8]; 250 g ai/ha,85
same,Plant response rating: Kochia,[9]; 31 g ai/ha,25
same,Plant response rating: Kochia,[9]; 62 g ai/ha,75
same,Plant response rating: Kochia,[9]; 125 g ai/ha,95
same,Plant response rating: Kochia,[9]; 250 g ai/ha,95
same,Plant response rating: Deadnettle,[10]; 31 g ai/ha,25
same,Plant response rating: Deadnettle,[10]; 62 g ai/ha,65
same,Plant response rating: Deadnettle,[10]; 125 g ai/ha,75
same,Plant response rating: Deadnettle,[10]; 250 g ai/ha,75
same,Plant response rating: Galium,[11]; 31 g ai/ha,0
same,Plant response rating: Galium,[11]; 62 g ai/ha,5
same,Plant response rating: Galium,[11]; 125 g ai/ha,15
same,Plant response rating: Galium,[11]; 250 g ai/ha,80
same,Plant response rating: Bluegrass,[12]; 31 g ai/ha,25
same,Plant response rating: Bluegrass,[12]; 62 g ai/ha,65
same,Plant response rating: Bluegrass,[12]; 125 g ai/ha,70
same,Plant response rating: Bluegrass,[12]; 250 g ai/ha,85
same,Plant response rating: Field Violet,[13]; 31 g ai/ha,0
same,Plant response rating: Field Violet,[13]; 62 g ai/ha,0
same,Plant response rating: Field Violet,[13]; 125 g ai/ha,10
same,Plant response rating: Field Violet,[13]; 250 g ai/ha,15
same,Plant response rating: Chamomile,[14]; 31 g ai/ha,20
same,Plant response rating: Chamomile,[14]; 62 g ai/ha,80
same,Plant response rating: Chamomile,[14]; 125 g ai/ha,85
same,Plant response rating: Chamomile,[14]; 250 g ai/ha,100
same,Plant response rating: Russian Thistle,[15]; 31 g ai/ha,15
same,Plant response rating: Russian Thistle,[15]; 62 g ai/ha,25
same,Plant response rating: Russian Thistle,[15]; 125 g ai/ha,60
same,Plant response rating: Russian Thistle,[15]; 250 g ai/ha,70
same,"Plant response rating: Barley, Winter",[16]; 31 g ai/ha,5
same,"Plant response rating: Barley, Winter",[16]; 62 g ai/ha,10
same,"Plant response rating: Barley, Winter",[16]; 125 g ai/ha,40
same,"Plant response rating: Barley, Winter",[16]; 250 g ai/ha,65
same,Plant response rating: Chickweed,[17]; 31 g ai/ha,65
same,Plant response rating: Chickweed,[17]; 62 g ai/ha,95
same,Plant response rating: Chickweed,[17]; 125 g ai/ha,95
same,Plant response rating: Chickweed,[17]; 250 g ai/ha,95
same,Plant response rating: Canarygrass,[18]; 31 g ai/ha,25
same,Plant response rating: Canarygrass,[18]; 62 g ai/ha,70
same,Plant response rating: Canarygrass,[18]; 125 g ai/ha,85
same,Plant response rating: Canarygrass,[18]; 250 g ai/ha,85
same,"Plant response rating: Buckwheat, Wild",[19]; 31 g ai/ha,0
same,"Plant response rating: Buckwheat, Wild",[19]; 62 g ai/ha,10
same,"Plant response rating: Buckwheat, Wild",[19]; 125 g ai/ha,15
same,"Plant response rating: Buckwheat, Wild",[19]; 250 g ai/ha,45
same,"Plant response rating: Oat, Wild",[20]; 31 g ai/ha,25
same,"Plant response rating: Oat, Wild",[20]; 62 g ai/ha,30
same,"Plant response rating: Oat, Wild",[20]; 125 g ai/ha,55
same,"Plant response rating: Oat, Wild",[20]; 250 g ai/ha,60
same,"Plant response rating: Bromegrass, Downy",[21]; 31 g ai/ha,15
same,"Plant response rating: Bromegrass, Downy",[21]; 62 g ai/ha,30
same,"Plant response rating: Bromegrass, Downy",[21]; 125 g ai/ha,40
same,"Plant response rating: Bromegrass, Downy",[21]; 250 g ai/ha,65
same,Plant response rating: Blackgrass,[22]; 31 g ai/ha,30
same,Plant response rating: Blackgrass,[22]; 62 g ai/ha,40
same,Plant response rating: Blackgrass,[22]; 125 g ai/ha,45
same,Plant response rating: Blackgrass,[22]; 250 g ai/ha,70
